In paper PMC2852842, “Marine Natural Meroterpenes: Synthesis and Antiproliferative Activity” (Marine Drugs, 2010):
In brackets after ≈: the same amount, converted by molar mass. Like-named read-outs stand apart in the source and are kept apart here.

Columns and labels:
[1] = tested on: Sphaerechinus granularis eggs; experiment: Inhibition of sea urchin egg division; format: cell-based; details: for IC50: read-out: IC50 S. granularis
Procedure: (§1) For cytotoxic assays on sea urchins, meroterpenes were dissolved in an egg suspension (described in the experimental section), and their ability to inhibit 50% of cell division (IC50) was estimated. Each experiment was carried out in triplicate and an average taken.
(§2) For antiproliferative assays on sea urchin eggs, we used a previously described method.

[2] = tested on: Paracentrotus lividus eggs; experiment: Inhibition of sea urchin egg division; format: cell-based
Procedure: as §1, §2

Escherichia coli = experiment: Microtiter Broth Dilution antibacterial assay; format: cell-based; details: for antibacterial effect (in words): E. coli
Procedure: (§3) The Microtiter Broth Dilution Method on gram negative (Escherichia coli) and gram positive (Micrococcus luteus) bacteria was used. Meroterpenes dissolved in DMSO were added to bacteria suspensions (5:100 v:v) for 24 hours. The assay was carried out in triplicate. Bacterial growth was evaluated by absorbance measurement (630 nm). The minimum concentration that inhibits (MIC) bacterial growth was determined for each compound on each bacterial strain.
(§4) The antibacterial assay used was based on the previously described method published by the […].

Micrococcus luteus = experiment: Microtiter Broth Dilution antibacterial assay; format: cell-based; details: for antibacterial effect (in words): M. luteus; for MIC: Micrococcus luteus, 24 h
Procedure: as §3, §4

[3] = tested on: PA1 ovary teratocarcinoma cells; experiment: Resazurin reduction test (RRT) cytotoxicity; format: cell-based, human; details: for IC50: Homo sapiens
Procedure: (§5) To provide information on their antiproliferative activity against solid cancers, the six meroterpenes were tested on three human carcinoma cell lines corresponding to cancers commonly observed in Western countries: MCF7 (breast), PA1 (ovary) and PC3 (prostate). To obtain additional information on their specificity for human cell lines and their specificity for cancer versus normal cell lines, each compound was tested versus L-929 murine immortalized cells and human normal fibroblasts. To mimic what happens in vivo, assays were carried out on exponentially growing cells cultured in the presence of 10% serum. The growth inhibitory effect was determined by measuring, after a 48 hour exposure to each chemical, the metabolic activity of treated and control cultures using the resazurin reduction test (RRT), which measures the amount of fluorescent resofurin produced by living cells. […] A dose-dependent inhibition of cell proliferation was only observed for epiconicol (3a). […] The toxicity of epiconicol observed in our model is in agreement with data obtained by Caroll and co-workers on a panel of cancer cells.
(§6) Human primary fibroblasts were purchased from Biopredic International (Rennes, France). Immortalized murine L929 cells and human MCF7 breast adenocarcinoma, PA1 ovary teratocarcinoma and PC3 androgen-resistant prostate carcinoma cells were obtained from the European Collection of Cell Cultures (ECACC, Salibury, UK). All were cultured at 37 °C under 5% CO2 and maintained in Eagle’s minimum essential medium (Gibco-BRL, Paisley, Scotland) supplemented with 10% fetal calf serum, vitamins and antibiotics (Gibco™, Cergy-Pontoise, France) as described previously.
(§7) The cytotoxicity of each treatment was determined after a 48 h exposure to each chemical (6 concentrations in triplicate, each in DMSO 0.5%) by means of the resazurin reduction test (RRT) that measures the amount of fluorescent resorufin produced by living cells. Assays were carried out at 530/590 nm accordingly to the procedure described by Barthomeuf et al.. IC50 values (mean ± S.D.) were calculated with the ALLFIT program and were expressed in μM.

[4] = tested on: MCF7 breast adenocarcinoma cells; experiment: Resazurin reduction test (RRT) cytotoxicity; format: cell-based, human; details: for IC50: Homo sapiens
Procedure: as §5, §6, §7

[5] = tested on: MCF7, PA1, PC3, L-929 cells and human normal fibroblasts; experiment: Resazurin reduction test (RRT) cytotoxicity, whole panel of cell lines; format: cell-based; details: span over the cell lines, 48 hour exposure, read-out: IC50, varied with the cell lines
Procedure: To provide information on their antiproliferative activity against solid cancers, the six meroterpenes were tested on three human carcinoma cell lines corresponding to cancers commonly observed in Western countries: MCF7 (breast), PA1 (ovary) and PC3 (prostate). To obtain additional information on their specificity for human cell lines and their specificity for cancer versus normal cell lines, each compound was tested versus L-929 murine immortalized cells and human normal fibroblasts. To mimic what happens in vivo, assays were carried out on exponentially growing cells cultured in the presence of 10% serum. The growth inhibitory effect was determined by measuring, after a 48 hour exposure to each chemical, the metabolic activity of treated and control cultures using the resazurin reduction test (RRT), which measures the amount of fluorescent resofurin produced by living cells. […] A dose-dependent inhibition of cell proliferation was only observed for epiconicol (3a). […]
as §7, with “Assays were carried out at 530/590 nm accordingly to the procedure described by Barthomeuf et al..” left out

[6] = tested on: PC3 androgen-resistant prostate carcinoma cells; experiment: Resazurin reduction test (RRT) cytotoxicity; format: cell-based; details: Homo sapiens
Procedure: as §5, §6, §7

[7] = tested on: L-929 murine immortalized cells; experiment: Resazurin reduction test (RRT) cytotoxicity; format: cell-based; details: Mus musculus
Procedure: as §5, §6, §7

human normal fibroblasts = experiment: Resazurin reduction test (RRT) cytotoxicity; format: cell-based; details: Fibroblast
Procedure: as §5, §6, §7

S.s granularis eggs = experiment: HPLC analysis of cytoplasmic extracts of treated sea urchin eggs; format: in vitro ADME, Sphaerechinus granularis; details: eggs treated with 5 μM
Procedure: To test the latter hypothesis, S.s granularis eggs were treated with 5 μM of methoxyconidiol, a concentration that inhibits their division. Sea urchin eggs were incubated 1, 40 and 90 minutes post-fertilization (p.f.) in the presence of methoxyconidiol. Cytoplasmic extracts of treated and control eggs were further prepared. Organic extracts of the cytoplasmic preparations were finally obtained and analyzed by HPLC (Figure 3).
Figure 3 HPLC analysis of methoxyconidiol (System WATERS, column: synergy 4 μm RP max; elution water: methanol under a gradient; UV detection 285 nm; flow: 0.3 mL/min) A: control compound (methoxyconidiol) B: analysis after Solid Phase Extraction at 1, 40 and 90 minutes after fertilization (min p.f.).
Preparation of cytoplasmic extracts was based on the technique described by Collas and Poccia. Gametes of P. lividus were collected in two separate beakers. Sperm was maintained undiluted on ice and eggs were stored at 19 °C until use. Sperm was diluted to 10% in Filtered Sea Water (FSW) and eggs were at 26 eggs/μL in FSW. […]
Cytoplasmic extracts of treated and control eggs were extracted with CH3OH and CH2Cl2 and analyzed by HPLC. […] This fraction was analyzed in HPLC (column: Phenomenex synergy 4μ max RP; elution with water and methanol under gradient, starting from 30% to 0% of water during 15 minutes; flow: 0.3 mL/min; detection photodiode array, UV at 285 nm).

sea urchin embryos = tested on: sea urchin embryos; parameters: method as in PMID 17448456; details: cited from earlier work
Streptococcus faecalis = tested on: Streptococcus faecalis; parameters: method as in PMID 3404153, PMID 7608321; details: cited from earlier work
Staphyclococcus aureus = tested on: Staphyclococcus aureus; parameters: method as in PMID 3404153, PMID 7608321; details: cited from earlier work
Micrococus luteus = tested on: Micrococus luteus; parameters: method as in PMID 17448456; details: cited from earlier work
[8] = Sphaerechinus granularis, 85 min
[9] = Paracentrotus lividus, 85 min, read-out: IC50 P. lividus, egg division, 85 minutes after fertilization

Question: Which IC50 [1, 8] does the source give for COc1ccc2c(c1)[C@H]1C=C(C)CC[C@H]1C(C)(C)O2 (relative stereo) [3b] here?
Answer: > 25 µM

Question: And the IC50 [2, 9]?
Answer: > 25 µM

Question: And the “antibacterial effect (in words)” value (Escherichia coli)?
Answer: totally inactive

Question: What about the “antibacterial effect (in words)” value (Micrococcus luteus) of the same molecule?
Answer: totally inactive

Question: For COc1ccc(O)c([C@@H]2C=C(C)CC[C@@H]2C(C)(C)OC)c1 (relative stereo) [5b], which IC50 ([1]; Sphaerechinus granularis, 85 min, egg division, 85 minutes after fertilization) is on record?
Answer: > 25 µM

Question: What about the IC50 ([2]; Paracentrotus lividus, 85 min, egg division, 85 minutes after fertilization, read-out: IC50 P. lividus) of the same molecule?
Answer: > 25 µM

Question: For CC1=C[C@@H]2c3cc(O)ccc3OC(C)(C)[C@@H]2CC1 [3a, epiconicol], which cultures killed ([3]; PA1, at 5 μM) is on record?
Answer: 30%

Question: What about the cultures killed ([4]; MCF7, at 5 μM) of the same molecule?
Answer: 30%

Question: What about the IC50 [5] of the same molecule?
Answer: 37 to 69 µM

Question: And the IC50 [1, 8]?
Answer: 9.8 ± 1.3 µM

Question: And the “antibacterial effect (in words)” value (Escherichia coli)?
Answer: weakly active

Question: And the MIC (Escherichia coli; Escherichia coli, 24 h)?
Answer: 800 µM (≈ 195 µg/mL)

Question: And the “antibacterial effect (in words)” value (Micrococcus luteus)?
Answer: weakly active

Question: What about the MIC (Micrococcus luteus) of the same molecule?
Answer: 100 µM (≈ 24.4 µg/mL)

Question: Which IC50 ([6]; 48 h) does the source give for Cc1ccc2c(c1)-c1cc(O)ccc1OC2(C)C [4a, didehydroconicol] here?
Answer: > 100 µM

Question: What about the IC50 ([7]; L929, 48 h) of the same molecule?
Answer: > 100 µM

Question: And the IC50 (human normal fibroblasts; Homo sapiens, 48 h)?
Answer: > 100 µM

Question: And the IC50 ([3]; 48 h)?
Answer: > 100 µM

Question: And the IC50 ([4]; MCF7, 48 h)?
Answer: > 100 µM

Question: And the “activity on egg division (in words)” value ([1]; S. granularis eggs)?
Answer: inactive

Question: What about the IC50 [1, 8] of the same molecule?
Answer: > 25 µM

Question: And the IC50 [2, 9]?
Answer: 11.3 ± 0.8 µM

Question: What about the “antibacterial effect (in words)” value (Micrococcus luteus) of the same molecule?
Answer: weakly active

Question: What about the MIC (Micrococcus luteus) of the same molecule?
Answer: 500 µM (≈ 120 µg/mL)

Question: With COc1ccc2c(c1)-c1cc(C)ccc1C(C)(C)O2 [4b, O-methyldidehydroconicol] as the molecule, how does the IC50 [1, 8] read?
Answer: > 25 µM

Question: And the IC50 [2, 9]?
Answer: > 25 µM

Question: What about the “antibacterial effect (in words)” value (Escherichia coli) of the same molecule?
Answer: totally inactive

Question: And the “antibacterial effect (in words)” value (Micrococcus luteus)?
Answer: totally inactive

Question: For COC(C)(C)[C@H]1CCC(C)=C[C@H]1c1cc(O)ccc1O [5a, methoxyconidiol], which IC50 ([6]; PC3, 48 hour exposure, 10% serum, RRT, read-out: IC50) is on record?
Answer: > 100 µM

Question: And the IC50 ([7]; L929, L-929, 48 hour exposure, 10% serum, RRT, read-out: IC50)?
Answer: > 100 µM

Question: And the IC50 (human normal fibroblasts; human normal fibroblasts, 48 hour exposure, 10% serum, RRT, read-out: IC50)?
Answer: > 100 µM

Question: And the “level of the compound in cytoplasmic extracts during incubation” value (S.s granularis eggs; 1, 40 and 90 minutes post-fertilization, HPLC)?
Answer: did not decrease significantly

Question: And the “penetration through sea urchin cell membranes” value (S.s granularis eggs; presence in the cytoplasm)?
Answer: penetrates through sea urchin cell membranes

Question: And the IC50 ([3]; PA1, 48 hour exposure, 10% serum, RRT, read-out: IC50)?
Answer: > 100 µM

Question: And the IC50 ([4]; MCF7, 48 hour exposure, 10% serum, RRT, read-out: IC50)?
Answer: > 100 µM

Question: And the melting point?
Answer: 197 °C

Question: And the “effect on sea urchin embryos during cell division” value (sea urchin embryos)?
Answer: disturbs mitotic spindle assembly leading to a cell cycle arrest during metaphase/anaphase transition

Question: And the IC50 ([1]; egg division, 85 minutes after fertilization, listed as methoxyconidiol)?
Answer: 4.3 µM

Question: What about the IC50 ([1]; egg division, 85 minutes after fertilization) of the same molecule?
Answer: 0.8 µM

Question: And the IC50 ([2]; egg division, 85 minutes after fertilization, listed as methoxyconidiol, read-out: IC50 P. lividus)?
Answer: 0.8 µM

Question: And the IC50 ([2]; egg division, 85 minutes after fertilization, read-out: IC50 P. lividus)?
Answer: 4.3 ± 0.1 µM

Question: Which results are given for CC(C)=CCCC1(C)C=Cc2cc(O)ccc2O1 (centres unmarked) [cordiachromene A]?
Answer: growth inhibition (in words) (Streptococcus faecalis): moderately inhibits; growth inhibition (in words) (Staphyclococcus aureus): moderately inhibits; growth inhibition (in words) (Micrococus luteus): moderately inhibits
